According to patent US7060733B2, “Methods for treating pancreatitis with curcumin compounds and inhibitors of reactive oxygen species” (The Regents of the University of California, priority 2002, dated 2006):

Assays:
NF-κB = assay: Curcumin and N-acetylcysteine alone and in combination, NF-κB activation in CCK-stimulated acinar cells; assay type: cell-based, rat; conditions: 0.1 μM CCK
Protocol: To measure the effects of curcumin compounds and ROS inhibitors, EMSAs and nuclear protein extractions were conducted as provided above. […] EMSAs for NF-κB activation were performed on nuclear proteins extracted from each sample.

NF-κB and AP-1 = conditions: antioxidant; cited from earlier work

## curcumin and N-acetylcysteine
NF-κB; curcumin 50 μM with N-acetylcysteine 10 μM
  inhibition of NF-κB activation in CCK-stimulated acinar cells: synergistic effect

## CC(=O)N[C@@H](CS)C(=O)O [N-acetylcysteine, reference compound]
NF-κB and AP-1
  NF-κB activation: inhibit
NF-κB; N-acetylcysteine 10 μM alone
  inhibition of NF-κB activation in CCK-stimulated acinar cells: very little inhibition
